Values quoted from earlier work, collected in article PMC6522624, “Comparison of desferrioxamine and NODAGA for the gallium-68 labeling of exendin-4” (EJNMMI Radiopharmacy and Chemistry, 2019).

Tests used:
[1] = gallium chelation; ref Šimeček et al. [2011]; Evers et al. [1989]
Description: However, their thermodynamic complex formation stability constant (log K) have been reported to be very similar, with 28.65 for DFO and 29.63 for NOTA (Šimeček et al. [2011]; Evers et al. [1989]).

[2] = in vivo
Description: Insulinomas generally express highly and specifically the glucagon-like peptide-1 receptor (GLP-1R) as they are of β-cell origin (Reubi and Waser [2003]). GLP-1R is a G-protein coupled receptor of the class B receptor family (Zhang et al. [2017]). […] Dipeptidyl peptidase-4 (DPP4) is responsible for the cleavage of the peptide (Baggio and Drucker [2007]).

| Molecule | thermodynamic complex formation stability constant (log K) [1] | biological half-life [2] |
| --- | --- | --- |
| CC(=O)N(O)CCCCCNC(=O)CCC(=O)N(O)CCCCCNC(=O)CCC(=O)N(O)CCCCCN [DFO, N′-[5-(acetyl-hydroxy-amino)pentyl]-N-[5-[3-(5-aminopentyl-hydroxy-carbamoyl)propanoylamino]pentyl]-N-hydroxy-butane diamide] | 28.65 |  |
| O=C(O)CN1CCN(CC(=O)O)CCN(CC(=O)O)CC1 [NOTA] | 29.63 |  |
| GLP-1: endogenous peptide ligand of GLP-1R |  | about 2 min |
